{
  "source": "patent US10328033B2",
  "about": "“Methods and biocompatible compositions to achieve sustained drug release in the eye” (Integral Biosystems LLC, priority 2014, dated 2019)",
  "experiment": "Photo-oxidation stress by high intensity UV light",
  "assay_type": "physicochemical",
  "details": "UV 254 nm, 24 hours, in buffer alone",
  "method": "Nanomesh wafers (ML-ES-06-31) were tested for photo-oxidative degradation by high intensity UV light (254 nm, for 24 hours). […] In contrast, 50% of the travoprost in buffer alone was degraded under these conditions.",
  "data": [
    {"compound": "CC(C)OC(=O)CCC/C=C\\C[C@@H]1[C@@H](/C=C/[C@@H](O)COc2cccc(C(F)(F)F)c2)[C@H](O)C[C@@H]1O", "note": "[travoprost]", "values": [
      {"measurement": "travoprost degraded", "result": 50, "unit": "%"}
    ]}
  ]
}
